# Experimental data from patent publication US20240002343A1, “COMPOUNDS HAVING INHIBITORY EFFECT ON MITOCHONDRIAL HYPERFISSION” (KYUSHU UNIVERSITY, NATIONAL UNIVERSITY CORPORATION, priority 2020, published 2024).
# Columns and labels:
# Drp1-filamin complex = conditions: Non-Patent Document 6; cited from earlier work
# [1] = tested on: cardiomyocytes derived from neonatal rats; assay: Inhibitory effect on mitochondrial hyperfission by hypoxic stimulation; assay type: cell-based, rat; conditions: 0.3 μM, 1 hour preincubation, 18 hours hypoxic environment; compared with cilnidipine positive control
# Description: A system for evaluating quantitatively the degree of mitochondrial division in cells was constructed. Specifically, cardiomyocytes derived from neonatal rats were cultured under either normoxia (20%) or hypoxia (1%) for 16 hours. Subsequently, the cells were stained with a fluorescent dye (MitoTracker Green FM, Thermo Fisher Scientific) that selectively stains mitochondria. Then, the mitochondria were observed under a fluorescence microscope, and the mitochondrial morphology was quantitatively measured by image analysis.
# FIGS. 2(a) and (b) are each a micrograph and an image explaining a method for quantitatively measuring mitochondrial morphology by image analysis. FIG. 2(a) is a representative fluorescence micrograph showing the general morphology of mitochondria. FIG. 2(b) is an image obtained by filtering the photograph in FIG. 2(a) and extracting the shape of the mitochondria. Image analysis was performed based on the image in FIG. 2(b) to quantify the lengths of mitochondrial fragments. For the quantification, in order to classify the mitochondria into vesicle-shaped, intermediate-shaped and tube-shaped, <3.5 μm is set for vesicle-shaped, 3.6 μm<length<4.2 μm is set for intermediate-shaped, and >4.2 μm is set for tube-shaped, respectively, as thresholds.
# The system for evaluation constructed in Test Example 1 was used to evaluate the mitochondrial hyperfission inhibitory effects of the compounds prepared in Examples.
# Specifically, at first, each compound was added to the culture medium of cardiomyocytes derived from neonatal rats at a final concentration of 0.3 μM, and the mixture was incubated for 1 hour.
# Then, each cells were cultured for an additional 18 hours in a hypoxic environment. Subsequently, mitochondria were stained with MitoTracker Green FM (Thermo Fisher Scientific) or anti-pyruvate dehydrogenase antibody (Abcam) and observed under a fluorescence microscope to quantitatively measure the morphology of mitochondria. For comparison, a group involving cilnidipine as a positive control and a group involving dimethyl sulfoxide (DMSO) as a negative control were also prepared.
# [2] = tested on: cardiomyocytes derived from neonatal rats; assay: Inhibitory effect on aging of cardiomyocytes under hypoxic stimulation (β-galactosidase, SPiDER-βGAL); assay type: cell-based, rat; conditions: 1 μM, 1 hour preincubation, 16 hours normoxia (20%) or hypoxia (1%); compared with cilnidipine
# Description: The compounds prepared in Examples were investigated for effects on the aging of cardiomyocytes. The aging of cardiomyocytes was evaluated by detecting β-galactosidase, one of the aging markers.
# Specifically, DOJINDO's cell aging detection kit-SPiDER-βGAL was used for detection according to the attached protocol. Each compound was added to the culture medium of cardiomyocytes derived from neonatal rats at a final concentration of 1 μM and the medium were incubated for 1 hour. Then, the medium was cultured for 16 hours under normoxia (20%) or hypoxia (1%). Subsequently, Bafilomycin A1, which inhibits endogenous β-galactosidase activity, was added and the medium was incubated for 1 hour. After washing the cells with a medium, SPiDER-βGAL was added thereto and the mixture was incubated for 30 minutes. After removing the supernatant, HEPES buffer (pH 7.4) was added thereto and the cells were observed under a fluorescence microscope to detect β-galactosidase in the aging cells. For comparison, a group involving cilnidipine as a positive control and a group involving dimethylsulfoxide (DMSO) as a negative control were prepared.
# Arrowheads indicate the β-galactosidase-positive cells.
# calcium channel = assay: Calcium antagonism (KCl-induced calcium ion influx, Fura 2-AM); assay type: cell-based, mouse; conditions: Neuro-2a cells; 0, 1, 10, 100 and 1,000 nM, 30 minutes; potassium chloride 60 mM
# Description: The compounds prepared in Examples were evaluated for calcium channel blocking activity. Specifically, at first, Neuro-2a cells, mouse-derived neuroblastoma cell line, were cultured in a serum-free medium, and Fura 2-AM (Dojindo Laboratories) that is a calcium ion probe, was added to the medium so that it was taken up by the cells.
# Subsequently, after replacing the medium with HEPES buffer (pH 7.4), each compound was each added at final concentrations of 0, 1, 10, 100 and 1,000 nM and the mixtures were incubated for 30 minutes.
# Then, depolarization stimulation was applied with potassium chloride (final concentration 60 mM), and the influx of calcium ions into the cells was measured by fluorescence microscopy.
# FIGS. 4(a) and (b) are graphs that illustrate the results of measurement of increase in intracellular calcium ion concentration induced by potassium chloride stimulation. Δratio on the vertical axis is expressed by formula (F1) below and represents a value that reflects the intracellular calcium ion concentration.
# A ratio=(fluorescence intensity at fluorescence wavelength of 510 nm against an excitation wavelength of 340 nm)/(fluorescence intensity at fluorescence wavelength of 510 nm against an excitation wavelength of 380 nm) Formula (F1)
# [3] = tested on: Neonatal rat myocardial cells (NRCM); assay: Cytoprotective effect against cytotoxicity induced by MeHg and hypotonic stimulation (LDH release assay); assay type: cell-based; conditions: 1 μM pretreatment 1 hour; 50 nM MeHg, 50% hypotonic solution, 2 days; compared with cilnidipine
# Description: Neonatal rat myocardial cells (NRCM) were seeded at 2.0×10^5 cells/ml in Matrigel-coated 96-well plates. The NRCMs were pretreated by incubating for 1 hour at 37° C., 5% CO2 with 1 μM of each compound 16c and cilnidipine as a positive control, 1 hour before hypotonic stimulation. To provide hypotonic stimulation, the NRCMs were incubated in isotonic solutions (100% DMEM) or 50% hypotonic solutions (50% DMEM and 50% water) in the presence or absence of 50 nM MeHg that a non-neurotoxic concentration, at 37° C. and 5% CO2 for 2 days. Two days later, cytotoxicity was measured by an LDH release assay using a cytotoxic LDH assay kit (Dojindo).
Compound,inhibition of formation of the Drp1-filamin complex (Drp1-filamin complex),mitochondrial hyperfission inhibitory effect (percentage of cells with vesicle-shaped mitochondria) [1],suppressive effect on aging (β-galactosidase-positive cells) [2],Ca2+ antagonism (increase in intracellular calcium ion concentration induced by potassium chloride stimulation) (calcium channel),cytoprotective effect against MeHg and hypotonic stimulation (LDH release) [3]
COCCOC(=O)C1=C(C)NC(C)=C(C(=O)OC/C=C/c2ccccc2)C1c1cccc([N+](=O)[O-])c1 (stereo not shown) [Cilnidipine],inhibit formation of the Drp1-filamin complex,–,–,–,–
"COCCOC(=O)C1=C(C)NC(C)=C(C(=O)O)C1c1ccccc1[N+](=O)[O-] (stereo not shown) [Compound 2, 5-((2-methoxyethoxy)carbonyl)-2,6-dimethyl-4-(2-nitrophenyl)-1,4-dihydropyridine-3-carboxylic acid]",–,the same as or more effect of cilnidipine,suppressive effect on aging that is the same as cilnidipine,no Ca2+ antagonism,–
"COCCOC(=O)c1c(C)nc(C)c(C(=O)NCCCc2ccncc2)c1-c1ccccc1[N+](=O)[O-] [Compound 4f, 2-Methoxyethyl 2,6-dimethyl-4-(2-nitrophenyl)-5-((3-(pyridin-4-yl)propyl)carbamoyl)nicotinate]",–,the same as or more effect of cilnidipine,suppressive effect on aging that is the same as cilnidipine,no Ca2+ antagonism,–
"COCCOC(=O)c1c(C)nc(C)c(C(=O)O)c1-c1ccccc1[N+](=O)[O-] [Compound 6, 5-((2-methoxyethoxy)carbonyl)-2,6-dimethyl-4-(2-nitrophenyl)nicotinic acid]",–,the same as or more effect of cilnidipine,–,no Ca2+ antagonism,–
"Cc1nc(C)c2c(=O)[nH]c3ccccc3c2c1C(=O)O [Compound 14, 2,4-dimethyl-5-oxo-5,6-dihydrobenzo[c][2,7]naphthyridine-1-carboxylic acid]",–,the same as or more effect of cilnidipine,–,no Ca2+ antagonism,–
"COCCOC(=O)C1=C(C)NC(C)=C(C(=O)Nc2ccc(OC)cc2)C1c1ccccc1 (stereo not shown) [Compound 16b, 2-Methoxyethyl 5-((4-methoxyphenyl)carbamoyl)-2,6-dimethyl-4-phenyl-1,4-dihydropyridine-3-carboxylate]",–,the same as or more effect of cilnidipine,–,no Ca2+ antagonism,–
"COCCOC(=O)C1=C(C)NC(C)=C(C(=O)Nc2cccc(C(=O)OC(C)(C)C)c2)C1c1ccccc1 (stereo not shown) [Compound 16c, 2-Methoxyethyl 5-((3-(tert-butoxycarbonyl)phenyl)carbamoyl)-2,6-dimethyl-4-phenyl-1,4-dihydropyridine-3-carboxylate]",–,the same as or more effect of cilnidipine,–,no Ca2+ antagonism,cytoprotective effects against MeHg and hypotonic stimulation similar to those of cilnidipine
"COCCOC(=O)c1c(C)nc(C)c2c(=O)n(-c3cccc(OC)c3)c3ccccc3c12 [Compound 17a, 2-Methoxyethyl 6-(3-methoxyphenyl)-2,4-dimethyl-5-oxo-5,6-dihydrobenzo[c][2,7]naphthyridine-1-carboxylate]",–,the same as or more effect of cilnidipine,–,no Ca2+ antagonism,–
"COCCOC(=O)C1=C(C)NC(C)=C(C(=O)OCCC#N)C1c1cccc([N+](=O)[O-])c1 (stereo not shown) [Compound 18, 3-(2-cyanoethyl) 5-(2-methoxyethyl) 2,6-dimethyl-4-(3-nitrophenyl)-1,4-dihydropyridine-3,5-dicarboxylate]",–,the same as or more effect of cilnidipine,–,no Ca2+ antagonism,–
"COCCOC(=O)C1=C(C)NC(C)=C(C(=O)NCc2ccccc2)C1c1cccc([N+](=O)[O-])c1 (stereo not shown) [Compound 20a, 2-Methoxyethyl 5-(benzylcarbamoyl)-2,6-dimethyl-4-(3-nitrophenyl)-1,4-dihydropyridine-3-carboxylate]",–,the same as or more effect of cilnidipine,–,no Ca2+ antagonism,–
